Laboratory results: PMC2846469, “Pharmacokinetic Study of a Novel Antihyperlipidemic Agent LM-13765- A Prodrug” (Indian Journal of Pharmaceutical Sciences, 2009)
Entries after “also recorded” stand apart in the source; their conditions may differ.

Key:
[1] = Preliminary in vivo study: serum LM 13765 by HPTLC after oral LM 13765; parameters: species or system rabbits (New Zealander strain); conditions: rabbits, oral 100 mg/kg, samples 0.5-12 h
Experimental: Drug/metabolite-free plasma or plasma spiked with fixed aliquots of LM 13765 or rabbit serum sample (0.2 ml) was taken in a glass centrifuge tube (15 ml capacity). Sufficient amount of acetonitrile was added to make the volume to 1.6 ml and vortexed at high speed for 1 min. The mixture was centrifuged (2500 rpm, 15 min) and the clear supernatant layer was transferred to another tube and dried over anhydrous sodium sulphate (0.25 g). Adequate volumes of the dried acetonitrile layer were spotted onto the TLC plate. Chromatographic estimations were performed using precoated silica gel 60 F254 TLC plates (prewashed with methanol and dried in air) under following conditions; A mobile phase, benzene:methanol (8:2 v/v); chamber saturation time, 60 min; temperature, 25±2°; development of plates, ascending mode; migration distance, 50 mm; slit dimension, 3×0.3 mm; wavelength of detection, 314 nm; band width, 4 mm; space between two bands, 4 mm; spraying rate, 10 μl/s.
Suitable volumes of standard solution of LM 13765 in acetonitrile or extracts of drug/metabolite-free plasma or rabbit serum samples, were applied on TLC plate under nitrogen stream using semiautomatic spotter. The plate was dried in air and developed at constant temperature (25±2°) using a mixture of benzene:methanol (8:2 v/v) as the mobile phase. […] Peak area values were used for quantitative determination. […]

[2] = Stability in plasma under storage conditions; format: in vitro ADME, rabbit; conditions: -20°, one day (24 h)
Experimental: The method was validated in terms of linearity, limit of quantitation, limit of detection, precision, accuracy and specificity. The linear response for LM 13765 spiked in plasma, was determined by analyzing corresponding samples five times for each concentration in the range of 12.5 to 100 ng/spot. The lowest concentration of the calibration range is taken as the limit of quantitation for LM 13765 while the limit of detection was determined by spotting concentrations of LM 13765 lower than the limit of quantitation. […] The recovery of LM 13765 from plasma (extraction efficiency) was determined by comparing peak areas obtained from plasma spiked with LM 13765 at concentration levels of 12.5, 25, 50, 75 and 100 ng/spot with the corresponding standards of LM 13765. Accuracy of the proposed method was determined by standard addition method at three different concentrations of LM 13765 in the range of 12.5 to 100 ng/spot. Specificity of the proposed method was assessed in terms of purity of chromatographic peak corresponding to LM 13765 by correlating the spectra scanned at peak start, peak apex and peak end positions of the spot corresponding to LM 13765. […] The sample was analyzed, on the same day as well as after 24 h storage, for the amounts of LM 13765. […]

[3] = system: serum cholesterol, triglycerides and HDL levels; parameters: method as in PMID 9037441; conditions: cited from earlier work
mice = conditions: up to the dose of 4.5 g/kg, earlier study reported in the introduction; cited from earlier work
hyperlipidemic rats = assay: Biological screening for antihyperlipidemic activity on hyperlipidemic rats; format: in vivo

SMILES | Parent LM 13765 in serum after oral administration (HPTLC spot Rf 0.21) [1] | Stability in plasma under storage conditions [2] | potency versus standard drug gemfibrozil in lowering serum cholesterol and triglycerides and elevating serum HDL [3] | mortality or behavioral changes after oral administration (mice) | antihyperlipidemic activity relative to parent compound LM 13765 (hyperlipidemic rats)
CCOC(=O)C(C#N)=C(NC=N)Nc1ccc(Cl)cc1 [LM 13765, N-[2-carbethoxy-2-cyano-1-(p-chloroanilino)vinyl]formamidine] | no spot corresponding to LM 13765 | undergoes significant degradation in one day | more potent than the standard drug gemfibrozil | no mortality or behavioral changes | 
CCOC(=O)C(C#N)=C(N)Nc1ccc(Cl)cc1 [LM 13765-C, ethyl 3-amino-2-cyano-3-(p-chloroanilino)acrylate] |  | stable |  |  | less potent than the parent compound; also recorded: very good antihyperlipidemic activity but is less potent than the parent compound
